{"source": "patent US7067545B1", "about": "“Remedies for spinocerebellar ataxia and compositions for treating spinocerebellar ataxia” (Meiji Seika Kaisha Ltd., priority 1998, dated 2006)", "key": {"[1]": {"tested_on": "drug induced ataxia mice", "experiment": "Effect on drug induced (cytosine arabinoside) ataxia mice, open-field test", "format": "in vivo", "settings": "for Falling Index (falling score/movement score) / Movement Score: 30 min after administration, observed 30 min, mean ± standard error", "procedure": "Ataxia mice prepared by repeated administration of cytosine arabinoside 50 mg/kg into male mice, 1, 2 and 3-day old, respectively, were used at 6-7-week old in the experiments (Simada, M. et al. Arch. Neurol., 32, 555-559, 1975 and Matsui, K. et al. Exp. Anim., 32, 13-19, 1983).\nImproving effects of drugs on ataxia were evaluated according to the methods of Yamamoto et al. (Yamamoto and Shimizu, Eur. J. Pharmacol. 1.66, 295-297, 1989) and Matsui et al. (Matsui et al. Eur. J. Pharmacol., 254, 295-297, 1994; Neurosci. Lett., 212, 115-118, 1996) as follows.\n(§1) The open-field apparatus with a 70 cm square filed surrounded by a 15 cm high wall was used. The floor of the field was marked out into 49 equal grids (each grid 10 cm×10 cm). At 30 minutes after administration of drug intraperitoneally into mice, each mouse was placed in the field and was monitored for behavior for 30 minutes. Observed items were as follows. Numbers of crossing lines of the grids by mouse were set as “movement score” and numbers of slipping the hindlimbs were set as “falling score”. Each score was measured simultaneously. Ratio of both scores (falling score/movement score) is expressed as “falling index”.\nDrugs used were D-serine ethyl ester, 10, 50 and 250 mg/kg, respectively, D-cycloserine, 2, 10 and 50 mg/kg, respectively, and L-serine ethyl ester, 250 mg/kg. Physiological saline was used as control. Each drug and saline were administered intraperitoneally."}, "[2]": {"settings": "mouse, in vivo, cited from earlier work"}, "[3]": {"tested_on": "genetic mutant ataxia mice, reeler mice", "experiment": "Effect on genetic mutant ataxia mice (reeler mice), open-field test", "format": "in vivo", "settings": "250 mg/kg i.p., mean ± standard error", "procedure": "as §1\nGenetic mutant ataxia mice, reeler mice (Heckroth, J. A. et al. J. Comp. Neurol., 279, 546-555, 1989 and Hamburgh, Dev. Biol., 8, 165-185, 1963) were purchased from Jackson Laboratory (Bar Harbor, Me., USA). Homozygotes were obtained by mating of heterozygote pairs. The homozygote male mice, 6-7 weeks old, were used for the experiments.\nExperimental method for evaluation of ataxia was performed as same as in example 1. In the drug administered group, D-serine ethyl ester 250 mg/kg was administered intraperitoneally. For control group, physiological saline was administered."}, "[4]": {"settings": "10 mg/kg i.p., listed as D-Cycloserine"}, "[5]": {"settings": "50 mg/kg i.p., listed as D-Cycloserine"}, "[6]": {"settings": "50 mg/kg i.p., listed as D-Serine Ethyl ester"}, "[7]": {"settings": "250 mg/kg i.p., listed as D-Serine Ethyl ester"}}, "note": "Like-named read-outs stand apart in the source and are kept apart here."}
{"smiles": "N[C@@H]1CON=C1O", "note": "[D-cycloserine]", "values": [{"measurement": "Falling Index (falling score/movement score)", "setting": "[1]; 2 mg/kg i.p.", "value": "0.80 ± 0.07"}, {"measurement": "Movement Score", "setting": "[1]; 2 mg/kg i.p.", "value": "117 ± 54"}, {"measurement": "Falling Index (falling score/movement score)", "setting": "[1]; 10 mg/kg i.p.", "value": "Significant decrease"}, {"measurement": "Movement Score", "setting": "[1]; 10 mg/kg i.p.", "value": "no significant effect"}, {"measurement": "Falling Index (falling score/movement score)", "setting": "[1]; [4]", "value": "0.69 ± 0.09"}, {"measurement": "Movement Score", "setting": "[1]; [4]", "value": "194 ± 71"}, {"measurement": "Falling Index (falling score/movement score)", "setting": "[1]; 50 mg/kg i.p.", "value": "Significant decrease"}, {"measurement": "Movement Score", "setting": "[1]; 50 mg/kg i.p.", "value": "no significant effect"}, {"measurement": "Falling Index (falling score/movement score)", "setting": "[1]; [5]", "value": "0.62 ± 0.04"}, {"measurement": "Movement Score", "setting": "[1]; [5]", "value": "286 ± 98"}, {"measurement": "improved action on ataxia", "setting": "[1]; below 50 mg/kg (i.p.) in mice", "value": "dose dependent manner"}, {"measurement": "LD50", "setting": "[2]; ip", "value": "approx. 2,900 mg/kg"}, {"measurement": "LD50", "setting": "[2]; iv", "value": "approx. 1,800 mg/kg"}, {"measurement": "LD50", "setting": "[2]; po", "value": "approx. 5,300 mg/kg"}, {"measurement": "LD50", "setting": "[2]; sc", "value": "approx. 2,800 mg/kg"}]}
{"smiles": "CCOC(=O)[C@H](N)CO", "note": "[D-serine ethyl ester]", "values": [{"measurement": "Falling Index (falling score/movement score)", "setting": "[1]; 10 mg/kg i.p.", "value": "0.88 ± 0.09"}, {"measurement": "Movement Score", "setting": "[1]; 10 mg/kg i.p.", "value": "386 ± 113"}, {"measurement": "Falling Index (falling score/movement score)", "setting": "[1]; 50 mg/kg i.p.", "value": "Significant decrease"}, {"measurement": "Movement Score", "setting": "[1]; 50 mg/kg i.p.", "value": "no significant effect"}, {"measurement": "Falling Index (falling score/movement score)", "setting": "[1]; [6]", "value": "0.66 ± 0.08"}, {"measurement": "Movement Score", "setting": "[1]; [6]", "value": "366 ± 96"}, {"measurement": "Falling Index (falling score/movement score)", "setting": "[1]; 250 mg/kg i.p.", "value": "Significant decrease"}, {"measurement": "Movement Score", "setting": "[1]; 250 mg/kg i.p.", "value": "no significant effect"}, {"measurement": "Falling Index (falling score/movement score)", "setting": "[1]; [7]", "value": "0.56 ± 0.06"}, {"measurement": "Movement Score", "setting": "[1]; [7]", "value": "412 ± 99"}, {"measurement": "Falling Index (falling score/movement score)", "setting": "[3]", "value": "Improved effect on ataxia"}, {"measurement": "Movement Score", "setting": "[3]", "value": "No effect"}, {"measurement": "Falling Index (falling score/movement score)", "setting": "[3]; listed as D-Serine Ethyl ester", "value": "0.24 ± 0.05"}, {"measurement": "Movement Score", "setting": "[3]; listed as D-Serine Ethyl ester", "value": "232 ± 66"}]}
{"smiles": "CCOC(=O)[C@@H](N)CO", "note": "[L-serine ethyl ester]", "values": [{"measurement": "Falling Index (falling score/movement score)", "setting": "[1]; 250 mg/kg i.p.", "value": "No improved action on ataxia"}, {"measurement": "Movement Score", "setting": "[1]; 250 mg/kg i.p.", "value": "129 ± 27"}, {"measurement": "Falling Index (falling score/movement score)", "setting": "[1]; 250 mg/kg i.p., listed as L-Serine Ethyl ester", "value": "0.80 ± 0.06"}]}
